This passage reports inhibition results from ChEMBL document CHEMBL5131499, “Design, synthesis and glycosidase inhibition of C-4 branched LAB and DAB derivatives” (Eur J Med Chem, 2022).

Structures are written as SMILES.

Broadly, the inhibition is the share of the control response that was lost under treatment.

In assay [1] the test system is Prunus dulcis. Nature of the assay: Inhibition of almond beta-glucosidase assessed as release of p-nitrophenol at 1000 uM using p-nitrophenyl glycoside as substrate by spectrometric assay relative to control.
For assay [2], the species on record is Bos taurus. The experiment in a line: Inhibition of bovine liver beta-glucosidase assessed as release of p-nitrophenol at 1000 uM using p-nitrophenyl glycoside as substrate by spectrometric assay relative to control.

With `OC[C@@H]1NC[C@H](O)[C@H]1O`, the inhibition in assay [1] and in assay [2] was under 50% throughout.
